Source: patent publication US8148391B2 (Cephalon, Inc., priority 2006, dated 2012)
pIC50: −log10 of the molar value. Read-outs that look alike come from different tables or passages of the source. One block for each compound: values may come before it.

Columns and labels:
[1] = molecular target: T1, c-Met (cytoplasmic domain) (Homo sapiens, UniProt P08581); assay: c-Met Kinase Assay (same methods as for ALK, with modifications); type: biochemical
T1 construct: 10 ng/mL c-Met (cytoplasmic domain, Invitrogen Corporation #PV3143); purchased Invitrogen Corporation PV3143
Summary of the method: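 Plates were coated with phospholipase C-γ substrate (10 μg/mL) in TBS, and the reaction was started with 10 ng/mL c-Met cytoplasmic domain and run 15 min at 37 °C. Phosphoproduct was detected with Eu-N1-labelled PT66 antibody. IC50 came from a variable-slope sigmoidal fit of percent inhibition vs log concentration.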

[2] = molecular target: T2, baculovirus-expressed ALK (Homo sapiens, UniProt Q9UM73); assay: ALK Kinase Assay (ELISA-type, time-resolved fluorescence); type: biochemical
T2 construct: host or cells: baculovirus expression system
Summary of the method: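 Plates coated with phospholipase C-γ substrate (10 μg/mL in TBS); reaction started with 30 ng/ml ALK and run 15 min at 37° C. Phosphorylated substrate detected with Eu-N1-labeled PT66 antibody. IC50 from sigmoidal variable-slope fit of percent inhibition vs log concentration.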

[3] = 1 μM ATP (Km level), 10 ng/mL c-Met, read-out: cMet Activity (c-Met kinase inhibition, IC50 class)
[4] = 1 μM ATP (Km level), 30 ng/ml ALK, 37° C., 15 minutes, read-out: ALK Activity (ALK kinase inhibition, IC50 class)
[5] = c-Met kinase inhibition, 1 μM ATP (Km level), read-out: cMet Activity
[6] = ALK kinase inhibition, 1 μM ATP (Km level), read-out: ALK Activity
[7] = c-Met kinase inhibition, 1 μM ATP, read-out: cMet Activity
[8] = ALK kinase inhibition, 1 μM ATP, read-out: ALK Activity
[9] = 1 μM ATP (Km level), read-out: cMet Activity (c-Met Kinase Inhibition, IC50)
[10] = 1 μM ATP (Km level), read-out: ALK Activity (ALK Kinase Inhibition, IC50)

T1 sequence (P08581 956-1390 limits assumed): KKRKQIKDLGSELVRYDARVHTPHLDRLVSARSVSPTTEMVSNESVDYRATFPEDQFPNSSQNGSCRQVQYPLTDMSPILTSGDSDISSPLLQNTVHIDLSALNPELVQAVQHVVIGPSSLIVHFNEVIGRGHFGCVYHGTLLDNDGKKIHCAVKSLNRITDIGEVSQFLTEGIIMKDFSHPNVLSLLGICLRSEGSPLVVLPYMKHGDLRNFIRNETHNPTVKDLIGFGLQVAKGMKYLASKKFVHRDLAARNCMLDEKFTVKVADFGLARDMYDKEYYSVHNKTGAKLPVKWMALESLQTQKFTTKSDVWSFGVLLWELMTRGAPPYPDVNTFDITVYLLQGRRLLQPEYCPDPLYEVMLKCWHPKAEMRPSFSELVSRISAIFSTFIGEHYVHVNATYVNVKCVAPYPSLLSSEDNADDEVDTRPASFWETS
T2 sequence (Q9UM73 19-1620): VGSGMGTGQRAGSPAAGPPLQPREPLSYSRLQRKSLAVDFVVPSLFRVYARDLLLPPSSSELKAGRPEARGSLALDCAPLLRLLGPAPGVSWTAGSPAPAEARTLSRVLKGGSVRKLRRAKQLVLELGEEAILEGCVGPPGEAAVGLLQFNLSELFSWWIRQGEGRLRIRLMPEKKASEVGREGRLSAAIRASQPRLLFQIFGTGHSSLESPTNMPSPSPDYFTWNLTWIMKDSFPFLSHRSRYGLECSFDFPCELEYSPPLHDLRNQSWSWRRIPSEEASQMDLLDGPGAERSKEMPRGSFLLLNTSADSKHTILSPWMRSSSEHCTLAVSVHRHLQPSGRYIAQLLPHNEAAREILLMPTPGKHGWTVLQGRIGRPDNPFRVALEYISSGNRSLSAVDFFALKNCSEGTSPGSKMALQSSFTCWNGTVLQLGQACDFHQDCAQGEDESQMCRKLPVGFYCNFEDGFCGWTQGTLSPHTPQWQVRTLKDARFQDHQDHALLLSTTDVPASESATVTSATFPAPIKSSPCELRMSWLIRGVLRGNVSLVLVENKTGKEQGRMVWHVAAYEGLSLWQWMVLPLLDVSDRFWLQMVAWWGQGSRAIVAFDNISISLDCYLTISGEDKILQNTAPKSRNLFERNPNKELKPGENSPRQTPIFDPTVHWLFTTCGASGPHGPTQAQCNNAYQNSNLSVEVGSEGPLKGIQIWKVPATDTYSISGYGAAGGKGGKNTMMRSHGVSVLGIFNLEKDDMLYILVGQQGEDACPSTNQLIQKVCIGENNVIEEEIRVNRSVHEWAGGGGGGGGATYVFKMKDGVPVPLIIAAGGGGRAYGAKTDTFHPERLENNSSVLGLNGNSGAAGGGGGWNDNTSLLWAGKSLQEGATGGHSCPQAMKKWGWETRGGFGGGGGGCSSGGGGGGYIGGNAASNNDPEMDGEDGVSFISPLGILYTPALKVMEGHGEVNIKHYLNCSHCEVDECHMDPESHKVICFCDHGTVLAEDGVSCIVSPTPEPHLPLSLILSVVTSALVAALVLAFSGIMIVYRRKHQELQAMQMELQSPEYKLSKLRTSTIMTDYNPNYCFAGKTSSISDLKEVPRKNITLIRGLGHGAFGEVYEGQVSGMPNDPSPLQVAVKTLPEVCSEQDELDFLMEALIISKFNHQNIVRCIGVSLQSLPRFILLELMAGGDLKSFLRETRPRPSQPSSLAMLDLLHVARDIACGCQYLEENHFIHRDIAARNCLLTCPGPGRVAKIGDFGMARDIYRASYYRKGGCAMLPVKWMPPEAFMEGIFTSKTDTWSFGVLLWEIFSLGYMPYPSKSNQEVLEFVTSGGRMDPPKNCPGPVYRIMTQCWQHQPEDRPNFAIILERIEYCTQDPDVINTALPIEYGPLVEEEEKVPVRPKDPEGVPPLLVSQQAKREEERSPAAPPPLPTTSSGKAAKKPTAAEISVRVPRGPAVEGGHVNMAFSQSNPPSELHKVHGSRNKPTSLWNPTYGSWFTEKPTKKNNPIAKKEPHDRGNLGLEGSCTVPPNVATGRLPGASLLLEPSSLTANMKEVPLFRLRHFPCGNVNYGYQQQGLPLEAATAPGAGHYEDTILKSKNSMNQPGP

Compound: O=C1CCCc2ccc(Nc3ncc(Cl)c(Nc4c(F)cccc4OC4CCOC4)n3)cc2N1 (centres unmarked) [Example 1273, 8-{5-Chloro-4-[2-fluoro-6-(tetrahydro-furan-3-yloxy)-phenylamino]-pyrimidin-2-ylamino}-1,3,4,5-tetrahydro-1-benzazepin-2-one]
pIC50 [1, 3]: 6.00 to 7.00
pIC50 [2, 4]: 6.00 to 7.00

Compound: 3-({2-[5-Chloro-2-(1-ethyl-5,5-dimethyl-2-oxo-2,3,4,5-tetrahydro-1H-1-benzazepin-8-ylamino)-pyrimidin-4-ylamino]-3-fluoro-phenyl}-methyl-amino)-propionitrile [Example 1265]
pIC50 [1, 3]: 5.00 to 6.00
pIC50 [2, 4]: 6.00 to 7.00

Compound: CNC(=O)c1cccc(OC)c1Nc1nc(Nc2ccc3c(c2)CCN(CCOC)CC3)ncc1Cl [Example 315, 2-{5-Chloro-2-[3-(2-methoxy-ethyl)-2,3,4,5-tetrahydro-1H-benzo[d]azepin-7-ylamino]-pyrimidin-4-ylamino}-3-methoxy-N-methyl-benzamide]
pIC50 [1, 5]: 6.00 to 7.00
pIC50 [2, 6]: 6.00 to 7.00

Compound: CNC(=O)c1ccsc1Nc1nc(Nc2ccc3c(c2)CCCC(=O)N3C)ncc1Cl [Example 1487, 2-[5-Chloro-2-(1-methyl-2-oxo-2,3,4,5-tetrahydro-1H-benzo[b]azepin-7-ylamino)-pyrimidin-4-ylamino]-thiophene-3-carboxylic acid methylamide]
pIC50 [1, 7]: 6.00 to 7.00
pIC50 [2, 8]: 6.00 to 7.00

Compound: COCCN1CCc2ccc(OC)c(Nc3ncc(Cl)c(Nc4ccc(N5CCOCC5)cc4OC)n3)c2CC1 [Example 246, 5-Chloro-N(2)-[7-methoxy-3-(2-methoxy-ethyl)-2,3,4,5-tetrahydro-1H-benzo[d]azepin-6-yl]-N(4)-(2-methoxy-4-morpholin-4-yl-phenyl)-pyrimidine-2,4-diamine]
pIC50 [1, 5]: < 5.00
pIC50 [2, 6]: 5.00 to 6.00

Compound: CCN1C(=O)CCC(C)(C)c2ccc(Nc3ncc(Cl)c(Nc4c(F)cccc4S(=O)(=O)C(C)C)n3)cc21 [Example 1252, 8-{5-Chloro-4-[2-fluoro-6-(propane-2-sulfonyl)-phenylamino]-pyrimidin-2-ylamino}-1-ethyl-5,5-dimethyl-1,3,4,5-tetrahydro-1-benzazepin-2-one]
pIC50 [1, 3]: 5.00 to 6.00
pIC50 [2, 4]: > 7.00

Compound: CNC(=O)c1sc(C(C)(C)C)cc1Nc1nc(Nc2ccc3c(c2)CCOC(=O)N3C)ncc1Cl [Example 1761, 5-tert-Butyl-3-[5-chloro-2-(5-methyl-6-oxo-5,6,8,9-tetrahydro-7-oxa-5-aza-benzocyclohepten-2-ylamino)-pyrimidin-4-ylamino]-thiophene-2-carboxylic acid methylamide]
pIC50 [1, 7]: 5.00 to 6.00
pIC50 [2, 8]: 5.00 to 6.00

Compound: CC(C)[C@H](Nc1nc(Nc2ccc3c(c2)CC(=O)N(C)CC3)ncc1Cl)C(N)=O [Example 1823, (S)-2-[5-Chloro-2-(3-methyl-4-oxo-2,3,4,5-tetrahydro-1H-benzo[d]azepin-7-ylamino)-pyrimidin-4-ylamino]-3-methyl-butyramide]
pIC50 [1, 7]: < 5.00
pIC50 [2, 8]: 5.00 to 6.00

Compound: COCCN1CCc2ccc(Nc3ncc(Cl)c(Nc4ccc(N(C)C)cc4S(=O)(=O)N(C)C)n3)cc2CC1 [Example 852, 2-{5-Chloro-2-[3-(2-methoxy-ethyl)-2,3,4,5-tetrahydro-1H-benzo[d]azepin-7-ylamino]-pyrimidin-4-ylamino}-5-dimethylamino-N,N-dimethyl-benzenesulfonamide]
pIC50 [1, 9]: 5.00 to 6.00
pIC50 [2, 10]: > 7.00

Compound: COCCN1CCc2ccc(Nc3ncc(Cl)c(Nc4c(C)cccc4OCC#N)n3)cc2CC1 [Example 1245, (2-{5-Chloro-2-[3-(2-methoxy-ethyl)-2,3,4,5-tetrahydro-1H-3-benzazepin-7-ylamino]-pyrimidin-4-ylamino}-3-methyl-phenoxy)-acetonitrile]
pIC50 [1, 3]: 6.00 to 7.00
pIC50 [2, 4]: 6.00 to 7.00

Compound: COCCN1CCc2ccc(Nc3ncc(Cl)c(N[C@@H]4CCCC[C@H]4NC(=O)C(F)(F)F)n3)cc2CC1 [Example 450, N-((1R,2R)-2-{5-Chloro-2-[3-(2-methoxy-ethyl)-2,3,4,5-tetrahydro-1H-benzo[d]azepin-7-ylamino]-pyrimidin-4-ylamino}-cyclohexyl)-2,2,2-trifluoro-acetamide]
pIC50 [1, 5]: 6.00 to 7.00
pIC50 [2, 6]: > 7.00

Compound: COCCN1CCc2ccc(Nc3ncc(Cl)c(Nc4ccccc4C(=O)NC4CC4)n3)cc2CC1 [Example 344, 2-{5-Chloro-2-[3-(2-methoxy-ethyl)-2,3,4,5-tetrahydro-1H-benzo[d]azepin-7-ylamino]-pyrimidin-4-ylamino}-N-cyclopropyl-benzamide]
pIC50 [1, 5]: 6.00 to 7.00
pIC50 [2, 6]: > 7.00

Next, values leading:

pIC50 [1, 5]: < 5.00
pIC50 [2, 6]: > 7.00
Compound: COc1c(Nc2ncc(Cl)c(N[C@H]3[C@@H](C(N)=O)[C@@H]4C=C[C@H]3C4)n2)ccc2c1CCCC(=O)N2 (relative stereo) [Example 139, (2-exo,3-exo)-3-[5-Chloro-2-(6-methoxy-2-oxo-2,3,4,5-tetrahydro-1H-benzo[b]azepin-7-ylamino)-pyrimidin-4-ylamino]-bicyclo[2.2.1]hept-5-ene-2-carboxylic acid amide]

pIC50 [1, 3]: < 5.00
pIC50 [2, 4]: > 7.00
Compound: CCN1C(=O)[C@H](NC(=O)CN(C)C)CCc2c1ccc(Nc1ncc(Cl)c(N[C@H]3[C@@H](C(N)=O)[C@@H]4C=C[C@H]3C4)n1)c2OC (single isomer, unassigned) [Example 1354]

pIC50 [1, 5]: < 5.00
pIC50 [2, 6]: > 7.00
Compound: COc1cc2c(cc1Nc1ncc(Cl)c(N[C@@H]3CCCC[C@H]3NS(C)(=O)=O)n1)CCNC(=O)C2 [Example 263, N-{(1R,2R)-2-[5-Chloro-2-(8-methoxy-2-oxo-2,3,4,5-tetrahydro-1H-benzo[d]azepin-7-ylamino)-pyrimidin-4-ylamino]-cyclohexyl}-methanesulfonamide]

pIC50 [1, 7]: < 5.00
pIC50 [2, 8]: > 7.00
Compound: COc1cc2c(cc1Nc1ncc(Cl)c(N[C@H]3[C@@H](C(N)=O)[C@@H]4C=C[C@H]3C4)n1)CCN(CC(=O)N1CCN(C)CC1)CC2 [Example 1539, (1S,2S,3R,4R)-3-(5-Chloro-2-{8-methoxy-3-[2-(4-methyl-piperazin-1-yl)-2-oxo-ethyl]-2,3,4,5-tetrahydro-1H-3-benzazepin-7-ylamino}-pyrimidin-4-ylamino)-bicyclo[2.2.1]hept-5-ene-2-carboxylic acid amide]

pIC50 [1, 5]: < 5.00
pIC50 [2, 6]: > 7.00
Compound: CCN1C(=O)CCCc2c1ccc(Nc1ncc(Cl)c(NC3C4CCC(C4)C3C(N)=O)n1)c2OC (stereo not drawn) [Example 129, (2-exo, 3-exo)-3-[5-Chloro-2-(1-ethyl-6-methoxy-2-oxo-2,3,4,5-tetrahydro-1H-benzo[b]azepin-7-ylamino)-pyrimidin-4-ylamino]-bicyclo[2.2.1]heptane-2-carboxylic acid amide]

pIC50 [1, 9]: < 5.00
pIC50 [2, 10]: > 7.00
Compound: COc1c(Nc2ncc(Cl)c(Nc3ccccc3-n3cccn3)n2)ccc2c1CCC(NCC(F)F)CC2 (centres unmarked) [Example 689, 5-Chloro-N*2*-[7-(2,2-difluoro-ethylamino)-1-methoxy-6,7,8,9-tetrahydro-5H-benzocyclohepten-2-yl]-N*4*-(2-pyrazol-1-yl-phenyl)-pyrimidine-2,4-diamine]

pIC50 [1, 5]: < 5.00
pIC50 [2, 6]: 5.00 to 6.00
Compound: COCCN1CCc2ccc(OC)c(Nc3ncc(Cl)c(N[C@H]4[C@@H](C(N)=O)[C@@H]5C=C[C@H]4C5)n3)c2CC1 (relative stereo) [Example 245, (2-exo,3-exo)-3-{5-Chloro-2-[7-methoxy-3-(2-methoxy-ethyl)-2,3,4,5-tetrahydro-1H-benzo[d]azepin-6-ylamino]-pyrimidin-4-ylamino}-bicyclo[2.2.1]hept-5-ene-2-carboxylic acid amide]
